Ten compounds from patent US9771341B2, “Piperazine carbamates and methods of making and using same” (Abide Therapeutics, Inc., priority 2015, dated 2017) can be followed below.

Test [1] concerns the target T1, ABHD6 (Mus musculus, UniProt Q8R2Y0).
T1 construct: Proteomes (mouse brain membrane fraction or cell lysates); from tissue; host or cells: mouse brain membrane fraction (or unspecified cell lysates)
T1 sequence (Q8R2Y0 1-336): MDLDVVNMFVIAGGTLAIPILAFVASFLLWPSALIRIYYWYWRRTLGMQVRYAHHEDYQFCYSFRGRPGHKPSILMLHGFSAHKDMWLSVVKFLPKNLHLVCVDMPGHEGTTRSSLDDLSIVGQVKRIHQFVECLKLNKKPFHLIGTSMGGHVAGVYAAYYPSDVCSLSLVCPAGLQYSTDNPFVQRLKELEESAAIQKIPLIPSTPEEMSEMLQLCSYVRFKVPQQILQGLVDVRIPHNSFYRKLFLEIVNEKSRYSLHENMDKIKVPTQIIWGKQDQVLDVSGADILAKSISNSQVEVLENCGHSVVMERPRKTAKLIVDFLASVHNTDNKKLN
Description: Mouse brain proteomes from inhibitor treated mice, ABHD6. It counts as in vivo. Conditions: 5 mg/kg oral gavage, C57Bl/6J mice, brain proteome 4 h after administration. The procedure:
(§1) Preparation of Mouse Brain Proteomes from Inhibitor Treated Mice.
(§2) Inhibitors were administered to wild-type C57Bl/6J by oral gavage in a vehicle of polyethylene glycol.

Test [2] deals with T2, MAGL (Mus musculus, UniProt O35678).
T2 construct: Proteomes (mouse brain membrane fraction or cell lysates); from tissue; host or cells: mouse brain membrane fraction (or unspecified cell lysates)
T2 sequence (O35678 1-303): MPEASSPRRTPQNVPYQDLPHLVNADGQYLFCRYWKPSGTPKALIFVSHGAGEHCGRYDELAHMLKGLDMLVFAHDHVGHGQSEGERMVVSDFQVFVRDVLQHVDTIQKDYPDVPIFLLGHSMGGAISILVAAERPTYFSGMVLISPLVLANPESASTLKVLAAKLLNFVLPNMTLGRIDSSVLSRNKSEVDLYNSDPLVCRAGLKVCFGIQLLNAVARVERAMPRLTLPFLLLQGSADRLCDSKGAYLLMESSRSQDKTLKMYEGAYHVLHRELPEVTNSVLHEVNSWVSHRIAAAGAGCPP
As to the kind of experiment: Mouse brain proteomes from inhibitor treated mice, MAGL. Particulars: 5 mg/kg oral gavage, C57Bl/6J mice, brain proteome 4 h after administration. It counts as in vivo. The procedure:
as §1, §2

The target in test [3] is T3, FAAH (Mus musculus, UniProt O08914).
T3 construct: Proteomes (mouse brain membrane fraction or cell lysates); from tissue; host or cells: mouse brain membrane fraction (or unspecified cell lysates)
T3 sequence (O08914 1-579): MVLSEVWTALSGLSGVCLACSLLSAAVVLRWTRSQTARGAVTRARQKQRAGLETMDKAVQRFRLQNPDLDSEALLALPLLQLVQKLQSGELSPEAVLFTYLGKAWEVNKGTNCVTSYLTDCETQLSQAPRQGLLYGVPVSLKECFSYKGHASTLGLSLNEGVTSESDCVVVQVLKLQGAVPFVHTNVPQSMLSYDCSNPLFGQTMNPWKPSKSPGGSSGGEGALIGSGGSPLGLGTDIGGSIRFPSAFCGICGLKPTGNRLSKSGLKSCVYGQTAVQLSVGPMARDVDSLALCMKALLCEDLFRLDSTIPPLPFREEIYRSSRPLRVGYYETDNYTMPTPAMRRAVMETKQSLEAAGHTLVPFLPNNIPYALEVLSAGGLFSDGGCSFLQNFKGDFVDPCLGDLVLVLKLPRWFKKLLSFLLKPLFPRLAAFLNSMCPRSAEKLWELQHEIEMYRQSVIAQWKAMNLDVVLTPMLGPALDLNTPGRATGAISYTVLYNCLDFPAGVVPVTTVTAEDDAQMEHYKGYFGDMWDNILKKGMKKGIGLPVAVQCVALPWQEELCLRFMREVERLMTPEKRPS
Description: In vitro competitive activity-based protein profiling (mouse), FAAH. The class given is biochemical. Conditions: for IC50: mouse brain membrane fraction or cell lysates, 30 min preincubation at 37° C, FP-Rh probe; for inhibition at 1 µM: mouse proteome, in vitro. In short, it runs like this: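 Mouse brain membrane fraction or cell lysates (1.0 mg/mL protein) preincubated with inhibitors 30 min at 37° C, then FP-Rh probe 30 min at 37° C. SDS-PAGE fluorescence band intensity gave FAAH activity.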

Test [4] has as its target T1, ABHD6. Description: In vitro competitive activity-based protein profiling (mouse), ABHD6. The class given is biochemical. Particulars: for IC50: mouse brain membrane fraction or cell lysates, 30 min preincubation at 37° C, FP-Rh probe; for inhibition at 1 µM: mouse proteome, in vitro, read-out: % Inhibition at 1 μM ABHD6. The procedure:
(§3) In Vitro Competitive Activity-Based Protein Profiling (Mouse).
(§4) Proteomes (mouse brain membrane fraction or cell lysates) (50 μL, 1.0 mg/mL total protein concentration) were preincubated with varying concentrations of inhibitors at 37° C. After 30 min, FP-Rh (1.0 μL, 50 μM in DMSO) was added and the mixture was incubated for another 30 min at 37° C. Reactions were quenched with SDS loading buffer (50 μL-4×) and run on SDS-PAGE.

For test [5], the target named is T3, FAAH. As to the kind of experiment: Mouse brain proteomes from inhibitor treated mice, FAAH. Conditions: 5 mg/kg oral gavage, C57Bl/6J mice, brain proteome 4 h after administration. It counts as in vivo. On the procedure:
as §1
Inhibitors were administered to wild-type C57Bl/6J by oral gavage in a vehicle of polyethylene glycol. Each animal was sacrificed 4 h following administration and brain proteomes were prepared and analyzed according to previously established methods (See Niphakis, M. J., et al. (2011) ACS Chem. Neurosci. and Long, J. Z., et al. Nat. Chem. Biol. 5:37-44)

Test [6] deals with T2, MAGL. As to the kind of experiment: In vitro competitive activity-based protein profiling (mouse), MAGL. The class given is biochemical. Particulars: for IC50: mouse brain membrane fraction or cell lysates, 30 min preincubation at 37° C, FP-Rh probe; for inhibition at 1 µM: mouse proteome, in vitro, read-out: % Inhibition at 1 μM MAGL. The procedure:
as §3, §4

Where only a bound is given, the exact number is not on record here.

With `C#CCO[C@H]1CCN(c2cc(Cl)ccc2CN2CCN(C(=O)OC(C(F)(F)F)C(F)(F)F)CC2)C1` [Example 3, 1,1,1,3,3,3-hexafluoropropan-2-yl (S)-4-(4-chloro-2-(3-(prop-2-yn-1-yloxy)pyrrolidin-1-yl)benzyl)piperazine-1-carboxylate], the inhibition (in general, the percentage by which the read-out fell short of the control) at 5 mg/kg in test [1] was < 25%; in test [2], > 75%; in test [5] it was < 25%. Also, the values for the IC50 in test [3], in test [4] and in test [6] were > 1000 nM, > 1000 nM and < 100 nM, respectively.
Consider `O=C(OC(C(F)(F)F)C(F)(F)F)N1CCN(Cc2ccc(Cl)cc2N2CC[C@H](CF)C2)CC1` [Example 4, 1,1,1,3,3,3-hexafluoropropan-2-yl (S)-4-(4-chloro-2-(3-(fluoromethyl)pyrrolidin-1-yl)benzyl)piperazine-1-carboxylate], for which the figures for the inhibition at 5 mg/kg in test [1], in test [2] and in test [5] were < 25%, > 75% and < 25%, respectively. In addition, the figures for the inhibition at 1 µM in test [3], in test [4] and in test [6] were < 25%, < 25% and > 75%, respectively. The results for the IC50 in test [3], in test [4] and in test [6] were > 1000 nM, > 1000 nM and < 100 nM, respectively.
Consider `COc1c(CN2CCN(C(=O)OC(C(F)(F)F)C(F)(F)F)CC2)cccc1CN1CCC(F)(F)CC1` [Example 16, 1,1,1,3,3,3-hexafluoropropan-2-yl 4-(3-((4,4-difluoropiperidin-1-yl)methyl)-2-methoxybenzyl)piperazine-1-carboxylate], for which the figures for the inhibition at 5 mg/kg in test [1], in test [2] and in test [5] were 25 to 75%, > 75% and < 25%, respectively. Moreover, the values for the inhibition at 1 µM in test [3], in test [4] and in test [6] were < 25%, > 75% and > 75%, respectively. The IC50 (usually the concentration that inhibits the measured activity by half) is > 1000 nM in test [3], 100 to 1000 nM in test [4] and < 100 nM in test [6].
For the compound `O=C(OC(C(F)(F)F)C(F)(F)F)N1CCN(Cc2ccc(CN3CCOCC3)cc2OC(F)(F)F)CC1` [Example 23, 1,1,1,3,3,3-hexafluoropropan-2-yl 4-(4-(morpholinomethyl)-2-(trifluoromethoxy)benzyl)piperazine-1-carboxylate], the results for the inhibition at 5 mg/kg in test [1], in test [2] and in test [5] were < 25%, > 75% and < 25%, respectively. Moreover, the inhibition at 1 µM in test [3] is < 25%; in test [4], < 25%; in test [6], > 75%. The half-inhibitory concentration (IC50) in test [3] is > 1000 nM; in test [4], > 1000 nM; in test [6] it was < 100 nM.
On to `O=C(OC(C(F)(F)F)C(F)(F)F)N1CCN(Cc2ccc(C(F)(F)F)c(N3CC4CCC(C3)O4)c2)CC1` [Example 26, 1,1,1,3,3,3-hexafluoropropan-2-yl 4-(3-(8-oxa-3-azabicyclo[3.2.1]octan-3-yl)-4-(trifluoromethyl)benzyl)piperazine-1-carboxylate], for which the inhibition at 5 mg/kg in test [1] was > 75%; in test [2], > 75%; in test [5] it was < 25%. The inhibition at 1 µM in test [3] is < 25%; in test [4] it was > 75%; in test [6], > 75%. The values for the IC50 in test [3], in test [4] and in test [6] were > 1000 nM, 100 to 1000 nM and < 100 nM, respectively.
As for `O=C(OC(C(F)(F)F)C(F)(F)F)N1CCN(Cc2cccc(OC(F)(F)F)c2N2CC3CCC(C2)O3)CC1` [Example 31, 1,1,1,3,3,3-hexafluoropropan-2-yl 4-(2-(8-oxa-3-azabicyclo[3.2.1]octan-3-yl)-3-(trifluoromethoxy)benzyl)piperazine-1-carboxylate], the values for the inhibition at 5 mg/kg in test [1], in test [2] and in test [5] were < 25%, 25 to 75% and < 25%, respectively. Also, the inhibition at 1 µM in test [3] was < 25%; in test [4], < 25%; in test [6], > 75%. Moreover, the values for the IC50 in test [3], in test [4] and in test [6] were > 1000 nM, > 1000 nM and < 100 nM, respectively.
Turning to `O=C(OC(C(F)(F)F)C(F)(F)F)N1CCN(Cc2cccc(OC(F)(F)F)c2N2CCC(N3CCCC3)CC2)CC1` [Example 32, 1,1,1,3,3,3-hexafluoropropan-2-yl 4-(2-(4-(pyrrolidin-1-yl)piperidin-1-yl)-3-(trifluoromethoxy)benzyl)piperazine-1-carboxylate], the inhibition at 5 mg/kg in test [1], in test [2] and in test [5] was < 25% in each case. In addition, the inhibition at 1 µM is < 25% in test [3], < 25% in test [4] and > 75% in test [6]. Moreover, the values for the IC50 in test [3], in test [4] and in test [6] were > 1000 nM, > 1000 nM and < 100 nM, respectively.
For the compound `NC(=O)C1CCN(c2cc(Cl)ccc2CN2CCN(C(=O)OC(C(F)(F)F)C(F)(F)F)CC2)CC1` [Example 33, 1,1,1,3,3,3-hexafluoropropan-2-yl 4-(2-(4-carbamoylpiperidin-1-yl)-4-chlorobenzyl)piperazine-1-carboxylate], the inhibition at 5 mg/kg in test [1] is > 75%; in test [2] it was > 75%; in test [5], < 25%. For the same compound, the results for the inhibition at 1 µM in test [3], in test [4] and in test [6] were < 25%, > 75% and > 75%, respectively. Besides, the IC50 in test [3] was > 1000 nM; in test [4], 100 to 1000 nM; in test [6], < 100 nM.
Take `CN(C)C(=O)C1CCN(c2cc(C(F)(F)F)ccc2CN2CCN(C(=O)OC(C(F)(F)F)C(F)(F)F)CC2)CC1` [Example 35, 1,1,1,3,3,3-hexafluoropropan-2-yl 4-(2-(4-(dimethylcarbamoyl)piperidin-1-yl)-4-(trifluoromethyl)benzyl)piperazine-1-carboxylate]: the inhibition at 5 mg/kg in test [1] is < 25%; in test [2] it was > 75%; in test [5], < 25%. Further, the inhibition at 1 µM is < 25% in test [3], < 25% in test [4] and > 75% in test [6]. Moreover, the IC50 is > 1000 nM in test [3], > 1000 nM in test [4] and < 100 nM in test [6].
As for `O=C(OC(C(F)(F)F)C(F)(F)F)N1CCN(Cc2ccc(C(F)(F)F)cc2N2CC3CCC(C2)O3)CC1` [Example 59, 1,1,1,3,3,3-hexafluoropropan-2-yl 4-(2-(8-oxa-3-azabicyclo[3.2.1]octan-3-yl)-4-(trifluoromethyl)benzyl)piperazine-1-carboxylate], in test [3], the inhibition at 1 µM is < 25% and the IC50 is > 1000 nM. The inhibition at 5 mg/kg in test [5] is < 25%.
